Experimental findings from patent US9085576B2 (AMGEN INC., priority 2013, dated 2015) are described below.

Bounds are passed on as bounds.

The target of the first assay is Beta Secretase enzyme (BACE) (Homo sapiens (Human), UniProt P56817). In words: In vitro enzymatic BACE FRET assay. Format: biochemical. The following applies: read-out: BACE1 Enzyme assay IC50.
Sequence of Beta Secretase enzyme (BACE) (P56817 46-501): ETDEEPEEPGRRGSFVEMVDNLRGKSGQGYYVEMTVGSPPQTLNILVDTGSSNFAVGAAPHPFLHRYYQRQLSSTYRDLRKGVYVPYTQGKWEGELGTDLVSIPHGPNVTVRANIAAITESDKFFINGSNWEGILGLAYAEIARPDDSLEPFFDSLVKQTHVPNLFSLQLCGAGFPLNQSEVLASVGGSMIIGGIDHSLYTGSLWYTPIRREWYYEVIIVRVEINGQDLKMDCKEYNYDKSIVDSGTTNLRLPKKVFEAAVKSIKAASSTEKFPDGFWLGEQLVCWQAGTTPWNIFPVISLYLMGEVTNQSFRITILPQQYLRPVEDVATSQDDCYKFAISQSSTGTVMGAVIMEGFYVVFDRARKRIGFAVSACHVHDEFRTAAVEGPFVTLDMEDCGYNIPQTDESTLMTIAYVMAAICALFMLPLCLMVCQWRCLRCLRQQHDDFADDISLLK
One may read the IC50 as the concentration that gives 50% inhibition. As to `NC1=N[C@@](c2cc(N[C@H]3CCCc4cc(Br)cnc43)ccc2F)(C(F)F)[C@H]2C[C@H]2O1` (mixture of isomers) [Example 382, (1R,5S,6R)-5-(5-(((R)-3-bromo-5,6,7,8-tetrahydroquinolin-8-yl)amino)-2-fluorophenyl)-5-(difluoromethyl)-2-oxa-4-azabicyclo[4.1.0]hept-3-en-3-amine and (1R,5S,6R)-5-(5-(((S)-3-bromo-5,6,7,8-tetrahydroquinolin-8-yl)amino)-2-fluorophenyl)-5-(difluoromethyl)-2-oxa-4-azabicyclo[4.1.0]hept-3-en-3-amine], the IC50 was found to be 3.07 µM.

Consider `N=C1N[C@](CF)(c2cc(-c3cncc(F)c3)c(CO)cc2F)[C@H]2CC2O1` (stereo partly drawn) [Example 433, (5-fluoro-4-([(1R,S),(5S,R),(6R,S)]-5-(fluoromethyl)-3-imino-2-oxa-4-azabicyclo[4.1.0]heptan-5-yl)-2-(5-fluoropyridin-3-yl)phenyl)methanol], for which the half-maximal inhibitory concentration (IC50) was 23.1 µM. Same read-out and setting: in the case of “(R)-4-((3-((1R,5S,6R)-3-amino-5-(difluoromethyl)-2-oxa-4-azabicyclo[4.1.0]hept-3-en-5-yl)-4-fluorophenyl)amino)chroman-7-carbonitrile and (S)-4-((3-((1R,5S,6R)-3-amino-5-(difluoromethyl)-2-oxa-4-azabicyclo[4.1.0]hept-3-en-5-yl)-4-fluorophenyl)amino)chroman-7-carbonitrile [Example 383]” it was 0.968 µM.

The target of the next assay is Cathepsin D (Cat D) (Homo sapiens (Human), UniProt P07339). In words: In vitro enzymatic Cathepsin D (Cat D) FRET assay. Format: biochemical. The conditions noted are these: read-out: CatD IC50.
Sequence of Cathepsin D (Cat D) (P07339 65-412, species assumed): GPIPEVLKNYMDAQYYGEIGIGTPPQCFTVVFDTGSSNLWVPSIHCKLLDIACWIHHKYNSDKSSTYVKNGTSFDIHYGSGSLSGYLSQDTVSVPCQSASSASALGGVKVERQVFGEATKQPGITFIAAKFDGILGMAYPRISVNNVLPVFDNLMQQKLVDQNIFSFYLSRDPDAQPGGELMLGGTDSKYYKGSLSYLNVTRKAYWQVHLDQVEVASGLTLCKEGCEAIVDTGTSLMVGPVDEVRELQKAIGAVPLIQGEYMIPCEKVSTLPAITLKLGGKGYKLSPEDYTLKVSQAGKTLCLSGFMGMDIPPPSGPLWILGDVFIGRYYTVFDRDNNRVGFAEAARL
For `NC1=N[C@@](c2cc(N[C@H]3CCCc4cc(Br)cnc43)ccc2F)(C(F)F)[C@H]2C[C@H]2O1` (mixture of isomers) [Example 382, (1R,5S,6R)-5-(5-(((R)-3-bromo-5,6,7,8-tetrahydroquinolin-8-yl)amino)-2-fluorophenyl)-5-(difluoromethyl)-2-oxa-4-azabicyclo[4.1.0]hept-3-en-3-amine and (1R,5S,6R)-5-(5-(((S)-3-bromo-5,6,7,8-tetrahydroquinolin-8-yl)amino)-2-fluorophenyl)-5-(difluoromethyl)-2-oxa-4-azabicyclo[4.1.0]hept-3-en-3-amine], the IC50 came out at 263 µM. The same measure, in the same setting: in the case of `Cc1cc(NC(=O)c2ccc(Cl)cn2)cc([C@@]2(C(F)F)N=C(N)O[C@@H]3C[C@@H]32)c1F` [Example 121, N-(3-((1R,5S,6R)-3-amino-5-(difluoromethyl)-2-oxa-4-azabicyclo[4.1.0]hept-3-en-5-yl)-4-fluoro-5-methylphenyl)-5-chloropicolinamide] it was 206 µM; in that of `Cc1cc(NC(=O)c2ccc(Cl)cn2)cc([C@@]2(C(F)F)N=C(N)O[C@@H]3C[C@@H]32)c1F` [Example 123, N-(3-((1R,5S,6R)-3-amino-5-(difluoromethyl)-2-oxa-4-azabicyclo[4.1.0]hept-3-en-5-yl)-4-fluoro-5-methylphenyl)-5-chloropicolinamide], 257 µM; in that of `Cc1cc(NC(=O)c2ccc(Cl)cn2)cc([C@]2(C(F)F)N=C(N)O[C@H]3C[C@H]32)c1F` [Example 124, N-(3-((1 S,5R,6S)-3-amino-5-(difluoromethyl)-2-oxa-4-azabicyclo[4.1.0]hept-3-en-5-yl)-4-fluoro-5-methylphenyl)-5-chloropicolinamide], 1230 µM.

For `Cc1cc(C#N)cnc1C(=O)Nc1cc(C)c(F)c([C@@]2(C(F)F)N=C(N)O[C@@H]3C[C@@H]32)c1` [Example 132, N-(3-((1R,5S,6R)-3-amino-5-(difluoromethyl)-2-oxa-4-azabicyclo[4.1.0]hept-3-en-5-yl)-4-fluoro-5-methylphenyl)-5-cyano-3-methylpicolinamide], the IC50 amounted to 725 µM. As for `COc1c(F)cc(NC(=O)c2ccc(Cl)cn2)cc1[C@@]1(CF)N=C(N)O[C@@H]2C[C@@H]21` [Example 145, N-(3-((1R,5S,6R)-3-amino-5-(fluoromethyl)-2-oxa-4-azabicyclo[4.1.0]hept-3-en-5-yl)-5-fluoro-4-methoxyphenyl)-5-chloropicolinamide], the IC50 was determined as 220 µM. The same measure, in the same setting: in the case of `COc1c(F)cc(NC(=O)c2ccc(Cl)cn2)cc1[C@]1(CF)N=C(N)O[C@H]2C[C@H]21` [Example 146, N-(3-((1S,5R,6S)-3-amino-5-(fluoromethyl)-2-oxa-4-azabicyclo[4.1.0]hept-3-en-5-yl)-5-fluoro-4-methoxyphenyl)-5-chloropicolinamide] it was 768 µM; in that of `C#C[C@@H](C)Oc1cnc(C(=O)Nc2ccc(F)c([C@@]3(C(F)F)N=C(N)O[C@@H]4C[C@@H]43)c2)cn1` [Example 148, N-(3-((1R,5S,6R)-3-amino-5-(difluoromethyl)-2-oxa-4-azabicyclo[4.1.0]hept-3-en-5-yl)-4-fluorophenyl)-5-((R)-but-3-yn-2-yloxy)pyrazine-2-carboxamide], 849 µM; in that of `NC1=N[C@@](c2cc(NC(=O)c3coc(CF)n3)ccc2F)(C(F)F)[C@H]2C[C@H]2O1` [Example 168, N-(3-((1R,5S,6R)-3-amino-5-(difluoromethyl)-2-oxa-4-azabicyclo[4.1.0]hept-3-en-5-yl)-4-fluorophenyl)-2-(fluoromethyl)oxazole-4-carboxamide], 56.8 µM. Same read-out and setting: as for `C#CCOc1ccc(C(=O)Nc2ccc(F)c([C@@]3(CF)N=C(N)O[C@@H]4C[C@@H]43)c2)nc1` [Example 205, N-(3-((1R,5S,6R)-3-amino-5-(fluoromethyl)-2-oxa-4-azabicyclo[4.1.0]hept-3-en-5-yl)-4-fluorophenyl)-5-(prop-2-yn-1-yloxy)picolinamide], the figure is 821 µM; as for `Cc1ccc(NC(=O)c2ccc(C#N)cn2)cc1[C@@]1(C(F)F)N=C(N)O[C@@H]2C[C@@H]21` [Example 269, N-(3-((1R,5S,6R)-3-amino-5-(difluoromethyl)-2-oxa-4-azabicyclo[4.1.0]hept-3-en-5-yl)-4-methylphenyl)-5-cyanopicolinamide], 716 µM. As to `Cc1cc(NC(=O)c2ncc(C#N)cn2)cc([C@@]2(C(F)F)N=C(N)O[C@@H]3C[C@@H]32)c1F` [Example 298, N-(3-((1R,5S,6R)-3-amino-5-(difluoromethyl)-2-oxa-4-azabicyclo[4.1.0]hept-3-en-5-yl)-4-fluoro-5-methylphenyl)-5-cyanopyrimidine-2-carboxamide], the IC50 was above 400 µM. Same read-out and setting: in the case of `C#Cc1ccc(C(=O)Nc2ccc(F)c([C@@]3(C(F)F)N=C(N)O[C@@H]4C[C@@H]43)c2)nc1` [Example 313, N-(3-((1R,5S,6R)-3-amino-5-(difluoromethyl)-2-oxa-4-azabicyclo[4.1.0]hept-3-en-5-yl)-4-fluorophenyl)-5-ethynylpicolinamide] it was 467 µM; in that of `NC1=N[C@@](c2cc(NC3(c4ccc(Cl)cn4)COC3)ccc2F)(C(F)F)[C@H]2C[C@H]2O1` [Example 332, (1R,5S,6R)-5-(5-((3-(5-chloropyridin-2-yl)oxetan-3-yl)amino)-2-fluorophenyl)-5-(difluoromethyl)-2-oxa-4-azabicyclo[4.1.0]hept-3-en-3-amine], 163 µM; in that of `NC1=N[C@@](c2cc(Nc3ncc(F)c4cc(Cl)cnc34)ccc2F)(C(F)F)[C@H]2C[C@H]2O1` [Example 361, (1R,5S,6R)-5-(5-((3-chloro-5-fluoro-1,7-naphthyridin-8-yl)amino)-2-fluorophenyl)-5-(difluoromethyl)-2-oxa-4-azabicyclo[4.1.0]hept-3-en-3-amine], above 400 µM. The same measure, in the same setting: as for `COC(=O)c1ccc(C(=O)Nc2cc(F)c(F)c([C@]3(C(F)F)N=C(N)O[C@H]4C[C@H]43)c2)nc1` [Example 436, methyl 6-((3-((1S,5R,6S)-3-amino-5-(difluoromethyl)-2-oxa-4-azabicyclo[4.1.0]hept-3-en-5-yl)-4,5-difluorophenyl)carbamoyl)nicotinate], the figure is 343 µM.
